Data on 27 compounds can be found in US7365095B2, “Chromane and chromene derivatives and uses thereof” (Wyeth, priority 2005, dated 2008).

Assay [1] deals with T1, human 5-hydroxytryptamine-2C (h5-HT2C) receptor (Homo sapiens, UniProt P28335).
T1 construct: expressed in transfected cells; host or cells: CHO (Chinese Hamster Ovary) cells; membrane preparation
T1 sequence (P28335 33-458): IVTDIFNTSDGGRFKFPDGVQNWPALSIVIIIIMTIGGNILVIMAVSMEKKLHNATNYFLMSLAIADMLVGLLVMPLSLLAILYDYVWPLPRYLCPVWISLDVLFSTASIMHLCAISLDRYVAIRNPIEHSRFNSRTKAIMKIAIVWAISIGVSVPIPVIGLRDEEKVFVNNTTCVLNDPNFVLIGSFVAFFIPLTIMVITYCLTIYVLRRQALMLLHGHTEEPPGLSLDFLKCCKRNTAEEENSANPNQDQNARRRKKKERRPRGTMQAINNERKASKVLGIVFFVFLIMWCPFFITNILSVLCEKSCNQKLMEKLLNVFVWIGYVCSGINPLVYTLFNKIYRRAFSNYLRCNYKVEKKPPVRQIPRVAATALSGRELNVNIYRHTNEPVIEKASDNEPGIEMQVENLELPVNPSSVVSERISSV
In words: [125I]DOI binding to membranes of CHO cells expressing h5-HT2C receptor.

A further assay concerns the target T2, human 5-HT2C receptor (Homo sapiens, UniProt P28335).
T2 sequence (P28335 33-458): T1 sequence (P28335 33-458)
In words: calcium mobilization (FLIPR) in CHO cells stably expressing the human 5-HT2C receptor. The conditions noted are these: for Emax: CHO, read-out: 5-HT2C Function EMax (%); for EC50: calcium mobilization, read-out: 5-HT2C Function EC50. Format: cell-based. On the technique in general: Calcium assays in cells follow changes in intracellular calcium, usually with a dye or a luminescent sensor.

Setting [2] is: read-out: 5-HT2C Binding Ki avg.

Each structure is given as a SMILES string. Structures can show the parent of a compound that is named as a salt. Where two headings read alike, the source gives them in different places.

`CNC[C@H]1CCc2cccc(-c3ccccc3)c2O1` [Compound 5, N-methyl-N-{[(2R)-8-phenyl-3,4-dihydro-2H-chromen-2-yl]methyl}amine hydrochloride]: in assay [1] (setting [2]), the inhibition constant Ki (usually the dissociation constant of the complex between target and ligand, obtained from inhibition or displacement) was at most 10 nM. Besides, on human 5-HT2C receptor, the maximal effect (Emax) (in general, the greatest response seen or fitted, relative to the assay's reference) is 90% and the EC50 – broadly, the concentration needed to bring the measured effect to its halfway point – lay in the range of 50 to 200 nM.

`COc1cc(CC(C)N)c(OC)cc1I` (stereo not shown) [[^125I] DOI, reference compound]: the equilibrium dissociation constant (Kd) (in general, the constant that tells how readily two partners part at equilibrium) in assay [1] (saturation binding with increasing concentrations of [125I] DOI, read-out: dissociation constant, KD) amounted to 0.4 nM.

On to `NC[C@H]1CCc2cc(F)cc(-c3ccc(Cl)cc3Cl)c2O1` [Compound 47, {[(2R)-8-(2,4-dichlorophenyl)-6-fluoro-3,4-dihydro-2H-chromen-2-yl]methyl}amine hydrochloride], for which the inhibition constant Ki in assay [1] (setting [2]) was over 50 nM. On human 5-HT2C receptor, the maximal response (Emax) amounted to 90% and the concentration giving a half-maximal response (EC50) is 50 to 200 nM.

Regarding `CNC[C@H]1CCc2cccc(-c3ccc(OC)cc3OC)c2O1` [Compound 7, N-{[(2R)-8-(2,4-dimethoxyphenyl)-3,4-dihydro-2H-chromen-2-yl]methyl}-N-methylamine hydrochloride], in assay [1] (setting [2]), the Ki was at most 10 nM. On human 5-HT2C receptor, the maximum response (Emax) turned out to be 90% and the EC50 is under 50 nM.

`NC[C@@H]1CCc2cccc(-c3cc(Cl)ccc3Cl)c2O1` [Compound 28, {[(2S)-8-(2,5-dichlorophenyl)-3,4-dihydro-2H-chromen-2-yl]methyl}amine hydrochloride]: the Ki in assay [1] (setting [2]) lay within 10 to 50 nM. At human 5-HT2C receptor, the Emax was 100% and the half-maximal effective concentration (EC50) was 50 to 200 nM.

`CCNC[C@H]1CCc2cc(F)cc(-c3c(Cl)cccc3Cl)c2O1` [Compound 58, N-{[(2R)-8-(2,6-dichlorophenyl)-6-fluoro-3,4-dihydro-2H-chromen-2-yl]methyl}ethanamine hydrochloride]: the inhibitory constant (Ki) in assay [1] (setting [2]) is at most 10 nM. On human 5-HT2C receptor, the Emax was determined as 60% and the EC50 is under 50 nM.

Take `CNC[C@@H]1CCc2cccc(-c3cc(Cl)ccc3Cl)c2O1` [Compound 20, {[(2S)-8-(2,5-dichlorophenyl)-3,4-dihydro-2H-chromen-2-yl]methyl}methylamine hydrochloride]: the inhibition constant (Ki) in assay [1] (setting [2]) is at most 10 nM. On human 5-HT2C receptor, the maximal response (Emax) came out at 90% and the EC50 was under 50 nM.

`CNC[C@@H]1CCc2cccc(-c3ccccc3)c2O1` [Compound 22, N-methyl-1-[(2S)-8-phenyl-3,4-dihydro-2H-chromen-2-yl]methanamine hydrochloride]: the Ki in assay [1] (setting [2]) is over 50 nM.

`CSc1ccc2c(c1)C(N1CCN(C)CC1)Cc1ccccc1S2` (stereo not shown) [Methiothepin, reference compound]: in assay [1] (reference compounds, 95% confidence interval in brackets, [125I]DOI displacement, read-out: Ki), the inhibitory constant (Ki) was determined as 4.6 nM.

For `NC[C@H]1C=Cc2cc(F)cc(-c3ccccc3Cl)c2O1` [Compound 64, {[(2R)-8-(2-chlorophenyl)-6-fluoro-2H-chromen-2-yl]methyl}amine hydrochloride], the Ki in assay [1] (setting [2]) was at most 10 nM. Moreover, at human 5-HT2C receptor, the Emax was 90% and the EC50 is under 50 nM.

`NC[C@H]1CCc2cc(F)cc(-c3c(Cl)cccc3Cl)c2O1` [Compound 57, {[(2R)-8-(2,6-dichlorophenyl)-6-fluoro-3,4-dihydro-2H-chromen-2-yl]methyl}amine hydrochloride]: the inhibitory constant (Ki) in assay [1] (setting [2]) was at most 10 nM. For the same compound, on human 5-HT2C receptor, the maximal effect (Emax) turned out to be 80% and the 50% effective concentration (EC50) is under 50 nM.

Take `NC[C@H]1CCc2ccc(F)c(-c3ccccc3Cl)c2O1` [Compound 71, ((2R)-8-(2-chlorophenyl)-7-fluorochroman-2-yl)methanamine hydrochloride]: the Ki in assay [1] (setting [2]) is at most 10 nM.

Take `CNC[C@H]1C=Cc2cccc(-c3c(Cl)cccc3Cl)c2O1` [Compound 59, {[(2R)-8-(2,6-dichlorophenyl)-2H-chromen-2-yl]methyl}methylamine hydrochloride]: the inhibitory constant (Ki) in assay [1] (setting [2]) is at most 10 nM. On human 5-HT2C receptor, the Emax was found to be 90% and the EC50 was under 50 nM.

For the compound `Cc1ccccc1-c1cc(F)cc2c1O[C@@H](CN)CC2` [Compound 49, {[(2R)-6-fluoro-8-(2-methylphenyl)-3,4-dihydro-2H-chromen-2-yl]methyl}amine hydrochloride], the Ki in assay [1] (setting [2]) is at most 10 nM. In addition, at human 5-HT2C receptor, the Emax was found to be 90% and the EC50 is under 50 nM.

For the compound `CNC[C@@H]1CCc2cccc(-c3ccccc3C)c2O1` [Compound 25, N-methyl-1-[(2S)-8-(2-methylphenyl)-3,4-dihydro-2H-chromen-2-yl]methanamine hydrochloride], in assay [1] (setting [2]), the Ki fell in the range of 10 to 50 nM. Moreover, on human 5-HT2C receptor, the Emax stood at 90% and the EC50 was over 200 nM.

On to `NC[C@@H]1CCc2cccc(-c3ccccc3Cl)c2O1` [Compound 27, {[(2S)-8-(2-chlorophenyl)-3,4-dihydro-2H-chromen-2-yl]methyl}amine hydrochloride], for which the Ki in assay [1] (setting [2]) lay within 10 to 50 nM. At human 5-HT2C receptor, the maximal response (Emax) came out at 80% and the half-maximal effective concentration (EC50) lay within 50 to 200 nM.

As to `NC[C@@H]1CCc2cc(F)cc(-c3ccc(Cl)cc3Cl)c2O1` [Compound 56, {[(2S)-8-(2,4-dichlorophenyl)-6-fluoro-3,4-dihydro-2H-chromen-2-yl]methyl}amine hydrochloride], in assay [1] (setting [2]), the inhibition constant (Ki) fell in the range of 10 to 50 nM. Besides, on human 5-HT2C receptor, the Emax was 80% and the EC50 was 50 to 200 nM.

With `NCC1C=Cc2cc(F)cc(-c3ccccc3Cl)c2O1` (stereo not shown) [Compound 62, {[8-(2-chlorophenyl)-6-fluoro-2H-chromen-2-yl]methyl}amine hydrochloride], the inhibitory constant (Ki) in assay [1] (setting [2]) lay in the range of 10 to 50 nM. On human 5-HT2C receptor, the Emax turned out to be 100% and the EC50 is under 50 nM.

As to `NC[C@@H]1CCc2cc(F)cc(-c3cccnc3)c2O1` [Compound 54, {[(2S)-6-fluoro-8-pyridin-3-yl-3,4-dihydro-2H-chromen-2-yl]methyl}amine hydrochloride], the Ki in assay [1] (setting [2]) was over 50 nM.

Consider `CNC[C@@H]1CCc2cccc(-c3ccccc3OC)c2O1` [Compound 23, {[(2S)-8-(2-methoxyphenyl)-3,4-dihydro-2H-chromen-2-yl]methyl}methylamine hydrochloride], for which the Ki in assay [1] (setting [2]) was over 50 nM.

With `NC[C@@H]1CCc2cccc(-c3ccccc3)c2O1` [Compound 30, {[(2S)-8-phenyl-3,4-dihydro-2H-chromen-2-yl]methyl}amine hydrochloride], the Ki in assay [1] (setting [2]) was over 50 nM.

As to `Cc1cc(Cl)ccc1-c1c(F)ccc2c1O[C@@H](CN)CC2` [Compound 72, ((2R)-8-(4-Chloro-2-methylphenyl)-7-fluorochroman-2-yl)methanamine hydrochloride], the Ki in assay [1] (setting [2]) was at most 10 nM.

`NC[C@@H]1CCc2cccc(-c3cccnc3)c2O1` [Compound 34, {[(2S)-8-pyridin-3-yl-3,4-dihydro-2H-chromen-2-yl]methyl}amine hydrochloride]: the Ki in assay [1] (setting [2]) is over 50 nM.

Take `COc1ccccc1-c1cccc2c1O[C@H](CN)CC2` [Compound 31, {[(2S)-8-(2-methoxyphenyl)-3,4-dihydro-2H-chromen-2-yl]methyl}amine hydrochloride]: in assay [1] (setting [2]), the Ki is over 50 nM.

As for `CNC[C@@H]1CCc2cccc(-c3cccnc3)c2O1` [Compound 26, N-methyl-1-[(2S)-8-pyridin-3-yl-3,4-dihydro-2H-chromen-2-yl]methanamine hydrochloride], in assay [1] (setting [2]), the Ki is over 50 nM.

Turning to `NC[C@@H]1CCc2cc(F)cc(-c3ccccc3)c2O1` [Compound 52, {[(2S)-6-fluoro-8-phenyl-3,4-dihydro-2H-chromen-2-yl]methyl}amine hydrochloride], in assay [1] (setting [2]), the Ki was over 50 nM.

On to `Cc1ccccc1-c1c(Cl)ccc2c1O[C@@H](CN)CC2` [Compound 69, ((2R)-7-Chloro-8-o-tolylchroman-2-yl)methanamine hydrochloride], for which the inhibitory constant (Ki) in assay [1] (setting [2]) is at most 10 nM.
